The test has as its target T1, hTLR9 (Homo sapiens, UniProt Q9NR96).
T1 sequence (Q9NR96 26-1032): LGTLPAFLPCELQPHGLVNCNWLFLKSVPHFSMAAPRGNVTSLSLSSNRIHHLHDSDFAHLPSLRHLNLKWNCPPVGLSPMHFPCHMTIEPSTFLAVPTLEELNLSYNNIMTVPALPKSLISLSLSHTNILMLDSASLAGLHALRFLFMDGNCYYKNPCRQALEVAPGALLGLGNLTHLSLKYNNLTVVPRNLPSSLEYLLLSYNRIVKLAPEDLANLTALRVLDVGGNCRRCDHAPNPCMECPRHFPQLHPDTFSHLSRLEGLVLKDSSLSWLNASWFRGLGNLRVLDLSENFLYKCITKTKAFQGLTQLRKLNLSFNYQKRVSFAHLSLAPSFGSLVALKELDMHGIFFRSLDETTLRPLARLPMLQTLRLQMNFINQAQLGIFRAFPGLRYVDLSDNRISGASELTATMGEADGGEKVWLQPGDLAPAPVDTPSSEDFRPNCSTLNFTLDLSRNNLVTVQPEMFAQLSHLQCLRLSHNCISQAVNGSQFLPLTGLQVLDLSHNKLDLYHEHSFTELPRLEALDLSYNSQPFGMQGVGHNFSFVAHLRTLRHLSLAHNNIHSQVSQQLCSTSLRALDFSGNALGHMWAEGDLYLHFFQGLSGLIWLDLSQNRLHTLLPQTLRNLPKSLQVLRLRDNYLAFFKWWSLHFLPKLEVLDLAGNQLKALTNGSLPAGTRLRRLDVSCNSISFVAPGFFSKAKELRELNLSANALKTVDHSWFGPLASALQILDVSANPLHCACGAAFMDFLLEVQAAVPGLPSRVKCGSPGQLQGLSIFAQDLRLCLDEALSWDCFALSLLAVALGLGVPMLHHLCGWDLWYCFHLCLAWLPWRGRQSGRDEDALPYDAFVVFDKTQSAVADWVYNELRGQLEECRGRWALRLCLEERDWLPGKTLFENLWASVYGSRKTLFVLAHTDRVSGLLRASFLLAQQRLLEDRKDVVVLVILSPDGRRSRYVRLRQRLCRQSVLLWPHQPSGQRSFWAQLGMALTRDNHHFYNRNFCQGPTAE
The experiment in a line: HEK293-Blue-hTLR-9 cells assay (SEAP reporter, ODN2006 stimulation). Also on record: host or cells: HEK293 (HEK-Blue hTLR9). To be noted: HEK293-Blue-hTLR9 cells, ODN2006, 20 hrs; read-out: HEK/hTLR9 IC50. The format is cell-based. The method in brief:
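Antagonism read as lowered SEAP reporter absorbance (620–655 nm, QUANTI-Blue, 2 h, 37 °C) in supernatants. Before that, ODN2006-stimulated HEK293-Blue cells stably expressing human TLR9 were exposed to compound dilutions at 1% final DMSO for 20 h at 37 °C.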

Molecules are shown by their SMILES.

Take `COC1CN(c2nc(C)cc(N3CCN(C[C@H]4CN(c5ccc(C#N)c6ncccc56)C[C@@H](C)O4)CC3)n2)CC1N` (single isomer, unassigned) [Example 88]: the IC50 amounted to 71 nM.

These data come from patent publication US20210395239A1 (Hoffmann-La Roche Inc., priority 2018, published 2021).
